Measured values: ChEMBL document CHEMBL1201862, “PubChem BioAssay data set” (2004)
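Growth conditions: 96-well plates. Treatment: test compound, 48 hours, 5 concentrations. Analysis: linear interpolation between bracketing concentrations; unreached endpoints set to highest concentration. Abbreviation: GI50, concentration required for 50% inhibition of growth.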 The source made the active and inactive calls. No stated cut-off is given here; in the data, active = GI50 up to about 1.1 µM and inactive = higher.

Key:
Test in all cases: inhibition of tumour cell growth, NCI panel, 48 h
A498 = tested on: A498
HT-29 = tested on: HT-29
OVCAR-3 = tested on: OVCAR-3
SNB-19 = tested on: SNB-19
A549 = tested on: A549
COLO 205 = tested on: COLO 205
SF-268 = tested on: SF-268
PC-3 = tested on: PC-3
KM12 = tested on: KM12
EKVX = tested on: EKVX
UACC-62 = tested on: UACC-62
SF-295 = tested on: SF-295
MDA-N = tested on: MDA-N
UO-31 = tested on: UO-31
HOP-62 = tested on: HOP-62
NCI-H460 = tested on: NCI-H460
SW-620 = tested on: SW-620
SK-MEL-2 = tested on: SK-MEL-2
IGROV-1 = tested on: IGROV-1

Compound	GI50 (A498)	GI50 (HT-29)	GI50 (OVCAR-3)	GI50 (SNB-19)	GI50 (A549)	GI50 (COLO 205)	GI50 (SF-268)	GI50 (PC-3)	GI50 (KM12)	GI50 (EKVX)	GI50 (UACC-62)	GI50 (SF-295)	GI50 (MDA-N)	GI50 (UO-31)	GI50 (HOP-62)	GI50 (NCI-H460)	GI50 (SW-620)	GI50 (SK-MEL-2)	GI50 (IGROV-1)
O=C1CC[C@@]2(O)[C@H]3Cc4ccc(-c5cccc(O)c5)c5c4[C@@]2(CCN3CC2CC2)[C@H]1O5	21.3 µM (inactive)	11.3 µM (inactive)	22 µM (inactive)	4.3 µM (inactive)	9.55 µM (inactive)	21 µM (inactive)	22.3 µM (inactive)	20.3 µM (inactive)	10 µM (inactive)	11.6 µM (inactive)	10.7 µM (inactive)	19.8 µM (inactive)	14.6 µM (inactive)	14.1 µM (inactive)	24.8 µM (inactive)	0.839 µM (active)	> 35.1 µM (inactive)	1.51 µM (inactive)	23.6 µM (inactive)
CC(C)(Cl)C(Br)CCC(C)(Br)C(Br)CBr (centres undefined)	19.3 µM (inactive)	15.8 µM (inactive)	15.9 µM (inactive)	23.1 µM (inactive)	30.1 µM (inactive)	16.9 µM (inactive)	16.9 µM (inactive)	24.9 µM (inactive)	17.8 µM (inactive)	25.4 µM (inactive)	17.7 µM (inactive)	17.7 µM (inactive)	19.5 µM (inactive)	19 µM (inactive)	16.1 µM (inactive)	15.3 µM (inactive)	16.3 µM (inactive)	14.7 µM (inactive)	19.6 µM (inactive)
COc1cccc(-c2ccc3c4c2O[C@H]2C(=O)CC[C@@]5(O)[C@@H](C3)N(CC3CC3)CC[C@]425)c1	18.7 µM (inactive)	11.6 µM (inactive)	14.4 µM (inactive)	20.7 µM (inactive)	18.2 µM (inactive)	13 µM (inactive)	20.8 µM (inactive)	13.4 µM (inactive)	17.7 µM (inactive)	17.1 µM (inactive)	17.1 µM (inactive)	18.4 µM (inactive)	18.9 µM (inactive)	14.5 µM (inactive)	19.5 µM (inactive)	28.9 µM (inactive)	12.2 µM (inactive)	19 µM (inactive)	21.8 µM (inactive)
O=C(Nc1cccc(F)c1)c1cc2ccc(O)cc2o/c1=N\c1cccc(F)c1	33 µM (inactive)	> 100 µM (inactive)	4.91 µM (inactive)	8.97 µM (inactive)	3.97 µM (inactive)	> 100 µM (inactive)	3.03 µM (inactive)	17.9 µM (inactive)	6.95 µM (inactive)	3.78 µM (inactive)	5.57 µM (inactive)	13.6 µM (inactive)	6.35 µM (inactive)	4.36 µM (inactive)	27.9 µM (inactive)	4.26 µM (inactive)	4.27 µM (inactive)	8.2 µM (inactive)	2.08 µM (inactive)
CCOC(=O)N(C)CCC1CC=CC(=O)C1c1cccc(OC)c1OC (centres undefined)	33.3 µM (inactive)	13.8 µM (inactive)	11.8 µM (inactive)	23.3 µM (inactive)	25.4 µM (inactive)	4 µM (inactive)	19.9 µM (inactive)	12.2 µM (inactive)	14.1 µM (inactive)	25.8 µM (inactive)	15.6 µM (inactive)	31 µM (inactive)	13.1 µM (inactive)	16.6 µM (inactive)	24.4 µM (inactive)	16.7 µM (inactive)	20.9 µM (inactive)	13.7 µM (inactive)	36.1 µM (inactive)
O=C(/C=C/c1ccc(O)c(O)c1O)OCCc1ccccc1	74.6 µM (inactive)	22.7 µM (inactive)	21.6 µM (inactive)	49.9 µM (inactive)	26.2 µM (inactive)	27.8 µM (inactive)	32.1 µM (inactive)	48.9 µM (inactive)	28.9 µM (inactive)	> 100 µM (inactive)	34 µM (inactive)	19.2 µM (inactive)	13 µM (inactive)	38.7 µM (inactive)	26.2 µM (inactive)	21.6 µM (inactive)	20.9 µM (inactive)	61.9 µM (inactive)	32.9 µM (inactive)
